Patent publication EP0671173A1, “Use of a tricyclic derivative for producing a medicament for the treatment of cognitive and memory disorders” (ADIR ET COMPAGNIE, priority 1994, dated 1995)

How the values were obtained:
[1] = system: souris mâles de la lignée BALB/c; conditions: 10 mg/kg, mouse; earlier results (Jaffard et coll., Behav. Pharmacol., 1991); cited from earlier work
[2] = system: souris mâles de la lignée BALB/c; experiment: T-maze: acquisition and retention of a simple spatial discrimination in the mouse; assay type: in vivo; conditions: 10 mg/kg i.p. 30 minutes before the test; for Acquisition de la discrimination : Nombre de réponses correctes sur les 20 premiers essais de l'épreuve: day 3, 12 BALB/c mice per group; for Acquisition de la discrimination : Nombre de réponses correctes sur les 20 premiers essais de l'épreuve / Rétention de la discrimination : Essais au critère: mean ± standard error; for Rétention de la discrimination : Essais au critère: day 4 (24 h after acquisition), criterion 5/5; for Rétention : Réponses correctes sur les cinq premiers essais: placebo 3,0 ± 0,21
From the text: Comparaison des effets de la tianeptine et de l'isomère (+) de celle-ci sur l'alternance spontanée, l'acquisition et la rétention d'une discrimination spatiale simple (labyrinthe en T) chez la souris.
Le principe du test s'appuie sur la tendance innée qu'ont les mammifères confrontés à un choix entre deux directions à prendre, à aller explorer le lieu qui leur est le moins familier. Un animal placé plusieurs fois successivement à l'entrée d'un labyrinthe en T se dirigera de préférence vers le bras qu'il n'a pas visité précédemment. Pour que ce comportement apparaisse, il est évidemment nécessaire que l'animal se souvienne du dernier bras visité. Ce souvenir met en jeu la mémoire dite de travail. La souris est soumise à une phase d'apprentissage (acquisition) pendant laquelle elle doit choisir plusieurs fois, de suite entre les deux bras, jusq'uà ce qu'elle ait opté cinq fois de suite pour un bras déterminé par l'expérimentateur. Pour apprécier si l'animal a bien retenu ce qu'il a appris au cours de l'épreuve d'acquisition, il est replacé 24 heures plus tard dans la même situation. Le degré de rétention sera mesuré par le nombre d'épreuves subies avant la réussite de cinq essais consécutifs.
Animaux : 36 souris mâles de la lignée BALB/c, vierges de toute expérimentation et âgées de 14 à 16 semaines, sont utilisées. Elles sont placées, 15 jours avant le début des expériences, dans des cages individuelles (animalerie climatisée (22°C) et pourvue d'un cycle artificiel lumière-obscurité de 12 heures (7h ON)).
Appareil : C'est un labyrinthe en T construit en plexiglas de couleur grise. Le couloir central et les deux bras d'arrivée mesurent 35 cm de long, 10 cm de large et 20 cm de haut. Le compartiment de départ (10 x 12 cm) est séparé du couloir central par une porte à guillotine. L'entrée de chaque bras est également pourvue d'une porte. L'appareil utilisé est semi-automatique : l'alimentation des mangeoires, l'ouverture et la fermeture des portes sont commandées par un micro-ordinateur selon le protocole pré-établi.
Protocole : Toutes les épreuves se déroulent entre 9h et 16h et durant 4 jours (de J1 à J4) sans interruption. La ration alimentaire des animaux est réduite de façon à atteindre un poids corporel de 83-84 % du poids ad libitum pour les épreuves d'habituation (J1 et J2) et de 87-88 % lors des épreuves d'alternance et de discrimination spatiale (J3 et J4).
Habituation (J1-J2) : L'expérience proprement dite est précédée de deux séances d'habituation de 10 minutes (exploration libre, une séance par jour). L'animal est simplement placé dans l'appareil toutes portes ouvertes.
Alternances spontanées et acquisition de la discrimination (J3) : Ces deux épreuves ont lieu le lendemain sans interruption. Elles sont destinées à mesurer l'alternance (6 premiers essais) et la vitesse d'acquisition de la discrimination spatiale (essais suivants). Lors des 6 premiers essais, la nourriture est disposée à l'extrémité de chacun des deux bras. Lors de chaque essai, l'animal est placé dans le compartiment de départ pendant 30 secondes (intervalle entre essais). La porte donnant accès au couloir central est ouverte et la souris peut choisir entre les deux bras où elle reste enfermée pendant 30 secondes. On constate que l'animal normal alterne ses choix successifs (65 % d'alternance environ). Apartir du 6ème essai, la nourriture n'est plus disposée que dans un seul bras, toujours le même; le bras choisi est celui qui a été le moins visité au cours des 6 premiers essais. L'épreuve se poursuit alors jusqu'à ce que l'animal atteigne un critère de 5 bonnes réponses sur 5 essais consécutifs.
Rétention de la discrimination spatiale (J4) : Elle se déroule dans les mêmes conditions que l'acquisition (même bras renforcé) et se poursuit pendant un minimum de 10 essais ou, au-delà, jusqu'à l'atteinte du critère de 5/5. Le nombre d'essais est limité à 20. […]

Structure (SMILES)	alternance spontanée, acquisition et rétention d'une discrimination simple (labyrinthe en T) [1]	Acquisition de la discrimination : Nombre de réponses correctes sur les 20 premiers essais de l'épreuve [2]	Rétention de la discrimination : Essais au critère [2]	Rétention : Réponses correctes sur les cinq premiers essais ([2]; day 4)	Rétention : Réponses correctes sur les dix premiers essais ([2]; day 4)
CN1c2ccccc2C(NCCCCCCC(=O)O)c2ccc(Cl)cc2S1(=O)=O (racemic) [Tianeptine, tianeptine]	facilitait	12,75 ± 0,77	8,58 ± 0,60 essais	n'a pas d'effet	
CN1c2ccccc2C(NCCCCCCC(=O)O)c2ccc(Cl)cc2S1(=O)=O (single isomer, unassigned; (+)) [Isomère (+), (+)7-[(3-chloro-6-méthyl-5,5-dioxo-6,11-dihydrodibenzo[c,f]-[1,2]-thiazepin-11-yl)amino]heptanoatede sodium]		14,83 ± 0,75	7,83 ± 0,74 essais	3,92 ± 0,15	performances supérieures (p<0,02) à celles du groupe tianeptine
